The target in assay [1] is T1, Sialidase-3 (Homo sapiens, UniProt Q9UQ49).
T1 sequence (Q9UQ49 whole entry): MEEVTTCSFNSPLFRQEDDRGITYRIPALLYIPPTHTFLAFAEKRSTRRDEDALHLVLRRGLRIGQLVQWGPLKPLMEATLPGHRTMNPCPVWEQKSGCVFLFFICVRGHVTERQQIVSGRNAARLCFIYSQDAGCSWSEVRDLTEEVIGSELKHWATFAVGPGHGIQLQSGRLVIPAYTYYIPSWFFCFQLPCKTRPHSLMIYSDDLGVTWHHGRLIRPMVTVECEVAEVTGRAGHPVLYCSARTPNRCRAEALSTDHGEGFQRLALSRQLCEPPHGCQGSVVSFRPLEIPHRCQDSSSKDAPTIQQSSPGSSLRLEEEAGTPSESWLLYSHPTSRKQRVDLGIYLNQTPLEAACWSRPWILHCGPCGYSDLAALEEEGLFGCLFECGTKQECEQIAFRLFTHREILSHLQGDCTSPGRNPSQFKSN
Put plainly: Inhibition of MBP-fused recombinant human neuraminidase 3 expressed in Escherichia coli using 4MU-NANA as substrate preincubated for 15 mins followed by substrate addition measured after 30 mins by fluorescence analysis.

The target of assay [2] is T2, Sialidase-1 (Homo sapiens, UniProt Q99519). The assay is described as follows: Inhibition of recombinant His6-tagged human neuraminidase 1 expressed in HEK293 cells using 4MU-NANA as substrate preincubated for 15 mins followed by substrate addition measured after 30 mins by fluorescence analysis.
The target of assay [3] is T1, Sialidase-3. The assay is described as follows: Inhibition of MBP-fused recombinant human neuraminidase 3 expressed in Escherichia coli using 4MU-NANA as substrate preincubated for 15 mins followed by substrate addition measured every 1 min for 30 mins by fluorescence analysis.
Assay [4] has as its target T3, Sialidase-4 (Homo sapiens, UniProt Q8WWR8).
T3 sequence (Q8WWR8 whole entry): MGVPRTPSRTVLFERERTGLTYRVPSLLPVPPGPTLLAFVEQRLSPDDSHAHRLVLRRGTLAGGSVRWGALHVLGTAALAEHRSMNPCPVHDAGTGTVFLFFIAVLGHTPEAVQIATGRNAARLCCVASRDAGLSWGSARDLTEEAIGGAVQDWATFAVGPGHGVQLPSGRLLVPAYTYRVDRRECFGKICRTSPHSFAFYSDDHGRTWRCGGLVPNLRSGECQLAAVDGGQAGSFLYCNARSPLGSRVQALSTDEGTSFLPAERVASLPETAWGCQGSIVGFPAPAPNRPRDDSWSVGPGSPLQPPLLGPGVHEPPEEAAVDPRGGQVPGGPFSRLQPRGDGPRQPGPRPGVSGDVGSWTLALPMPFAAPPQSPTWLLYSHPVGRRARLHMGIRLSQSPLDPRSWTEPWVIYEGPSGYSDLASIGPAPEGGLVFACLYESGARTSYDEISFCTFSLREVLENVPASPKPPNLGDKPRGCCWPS
The assay is described as follows: Inhibition of MBP-fused recombinant human neuraminidase 4 expressed in Escherichia coli using 4MU-NANA as substrate preincubated for 15 mins followed by substrate addition measured after 30 mins by fluorescence analysis.

Assay [5] concerns the target T3, Sialidase-4. Put plainly: Inhibition of MBP-fused recombinant human neuraminidase 4 expressed in Escherichia coli using 4MU-NANA as substrate preincubated for 15 mins followed by substrate addition measured every 1 min for 30 mins by fluorescence analysis.
The target of assay [6] is T2, Sialidase-1. Put plainly: Inhibition of recombinant His6-tagged human neuraminidase 1 expressed in HEK293 cells using 4MU-NANA as substrate preincubated for 15 mins followed by substrate addition measured every 1 min for 30 mins by fluorescence analysis.

Our source for the IC50 and Ki values is ChEMBL document CHEMBL4270532, “Molecular dynamics simulations of viral neuraminidase inhibitors with the human neuraminidase enzymes: Insights into isoenzyme selectivity” (Bioorg Med Chem, 2018).

pIC50: −log10 of the molar value. Where only a bound is given, the exact number is not on record here.

On to `CC(=O)N[C@H]1[C@H]([C@H](O)[C@H](O)CO)OC(O)(C(=O)O)C[C@@H]1O` (some centres undefined), for which the pIC50 at Sialidase-3 [1], at Sialidase-1 [2] and on Sialidase-4 [4] was below 3.30 throughout. Further, the Ki entry at Sialidase-3 [3], at Sialidase-4 [5] and at Sialidase-1 [6] was “Not Active” in each case.

For `CCOC(=O)C1=C[C@@H](OC(CC)CC)[C@H](NC(C)=O)[C@@H](N)C1` [OSELTAMIVIR], the negative-log IC50 (pIC50) on Sialidase-3 [1], on Sialidase-1 [2] and on Sialidase-4 [4] was below 3.30 in each case. Further, the Ki result at Sialidase-3 [3], at Sialidase-4 [5] and on Sialidase-1 [6] was “Not Active” in each case.

For the compound `CCC(CC)[C@H](NC(C)=O)[C@@H]1[C@H](O)[C@@H](C(=O)O)C[C@H]1NC(=N)N` [PERAMIVIR ANHYDROUS], the negative logarithm of the IC50 (pIC50) on Sialidase-3 [1], on Sialidase-1 [2] and at Sialidase-4 [4] was below 3.30 each time. The Ki entry on Sialidase-3 [3], at Sialidase-4 [5] and on Sialidase-1 [6] was “Not Active” throughout.

Turning to `CC(=O)N[C@H]1[C@H]([C@H](O)[C@H](O)CO)OC(C(=O)O)=C[C@@H]1NC(=N)N` [ZANAMIVIR], the Ki entry on Sialidase-1 [6] was “Not Active”.
